For 15 compounds, IC50 results are on record in patent US11021481B2, “Substituted isoindolin-1-ones and 2,3-dihydro-1h-pyrrolo[3,4-c]pyridin-1-ones as HPK1 antagonists” (Nimbus Saturn, Inc., priority 2019, dated 2021).

pIC50: −log10 of the molar value.

Chain of HPK1 (Q92918 whole entry): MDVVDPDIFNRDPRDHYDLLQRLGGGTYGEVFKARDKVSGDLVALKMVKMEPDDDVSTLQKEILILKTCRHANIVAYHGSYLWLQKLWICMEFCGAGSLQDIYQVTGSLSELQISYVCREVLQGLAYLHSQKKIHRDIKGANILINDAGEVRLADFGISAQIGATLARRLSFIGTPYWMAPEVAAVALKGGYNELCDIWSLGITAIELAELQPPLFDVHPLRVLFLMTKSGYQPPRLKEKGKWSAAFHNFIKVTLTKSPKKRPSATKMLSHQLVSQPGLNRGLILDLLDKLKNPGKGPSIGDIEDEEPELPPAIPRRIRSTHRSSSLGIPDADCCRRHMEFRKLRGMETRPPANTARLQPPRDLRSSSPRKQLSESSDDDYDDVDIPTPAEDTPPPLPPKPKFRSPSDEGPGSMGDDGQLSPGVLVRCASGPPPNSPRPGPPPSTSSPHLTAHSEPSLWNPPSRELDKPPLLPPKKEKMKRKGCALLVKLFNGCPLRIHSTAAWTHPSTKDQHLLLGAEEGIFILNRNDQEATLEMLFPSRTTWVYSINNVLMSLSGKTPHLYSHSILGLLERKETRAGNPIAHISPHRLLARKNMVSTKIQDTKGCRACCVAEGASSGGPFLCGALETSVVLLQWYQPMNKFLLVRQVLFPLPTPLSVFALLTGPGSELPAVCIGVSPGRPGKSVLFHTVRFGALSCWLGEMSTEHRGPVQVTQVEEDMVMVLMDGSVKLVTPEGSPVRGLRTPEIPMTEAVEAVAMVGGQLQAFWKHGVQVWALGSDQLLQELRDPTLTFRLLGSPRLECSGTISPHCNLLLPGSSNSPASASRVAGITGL

The target of this experiment is HPK1 (Homo sapiens (Human), UniProt Q92918). Kind of experiment: HPK1 biochemical enzyme assay (microfluidic mobility shift assay). To be noted: 1.5 nM HPK1, ATP 1 mM final, 30 min preincubation, 60 min at RT, Caliper EZ Reader; read-out: HPK1 1000UMATP caliper IC50. In a few lines:
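Mobility shift readout of HPK1 activity after a 60 min RT reaction with 1 mM ATP, 1 μM substrate and 5 mM MgCl2. Enzyme/substrate mix was first exposed to compounds for 30 min, using ten-point curves topping at 3 μM final.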
As to `Cn1ccc2c(-c3ncc(Nc4ccc(N5CCC(O)CC5)cn4)c4c3CNC4=O)cccc21` [I-279, 7-((5-(4-hydroxypi-peridin-1-yl)pyridin-2-yl)amino)-4-(1-methyl-1H-indol-4-yl)-2.3-dihydro-1H-pyrrolo[3,4-c]pyridin-1-one], the pIC50 is over 7.00.

For the compound `O=C1NCc2c(-c3cnc4cc(F)ccn34)ccc(Nc3ccc(N4CCC(C(=O)O)CC4)cn3)c21` [I-203, l-[6-[[7-(7-fluoroimidazo [1,2-a]pyridin-3-yl)-3-oxo-isoindolin-4-yl]amino]-3-pyridyl]piper-idine-4-carboxylic acid], the negative-log IC50 (pIC50) is over 7.00.

Take `CN1CCN(c2ccc(Nc3ccc(-c4ccnc5[nH]ccc45)c4c3C(=O)NC4)nc2)CC1` [I-31, 7-[[5-(4-methylpiperazin-1-yl)-2-pyridyl]amino]-4-(1H-pyrrolo[2,3-b]pyridin-4-yl)-isoindolin-1-one]: the pIC50 is over 7.00.

Turning to `Cc1ccn2c(-c3ncc(Nc4ccc(N5CCOCC5)cn4)c4c3CNC4=O)cnc2c1` [I-163], the negative-log IC50 (pIC50) was 6.00 to 7.00.

With `CNCc1nc(Nc2cnc(-c3ccnc4c3ccn4C)c3c2C(=O)NC3)ccc1[C@@H]1CCOC1` (single isomer, unassigned) [I-813], the pIC50 was over 7.00.

Consider `CN1CCOC2(CCCN(c3ccc(Nc4ccc(-c5cnc6cc(F)ccn56)c5c4C(=O)NC5)nc3)C2)C1` (stereo not drawn) [I-496, 4-(7-fluoroimidazo [1,2-a]pyridin-3-yl)-7-[[5-(4-methyl-1-oxa-4,8-diazaspiro[5.5]undecan-8-yl)-2-pyridyl]amino) isoindolin-1-one], for which the pIC50 was over 7.00.

On to `Cc1[nH]c2ncccc2c1-c1ncc(Nc2ccc(N3CCN(C)CC3)cn2)c2c1CNC2=O` [I-15], for which the pIC50 is 6.00 to 7.00.

In the case of `NCc1nc(Nc2ccc(-c3cnc4cc(F)ccn34)c3c2C(=O)NC3)ccc1[C@@H]1CCOC1` [I-702, (S)-7-((6-(aminomethyl)-5-(tetrahydrofuran-3-yl)pyridin-2-yl)amino)-4-(7-fluoroimidazo [1,2-a]pyridin-3-yl)isoindolin-1-one], the negative logarithm of the IC50 (pIC50) was over 7.00.

Take `O=C1NCc2c(-c3cnc4cc(F)ccn34)ccc(Nc3ccc([C@H]4CCOC4)c(CN4CCC[C@H]4CO)n3)c21` [I-827, 4-(7-fluoroimidazo [1,2-a]pyridin-3-yl)-7-((6-(((S)-2-(hydroxymeth-yl)pyrrolidin-1-yl]methyl)-5-((R)-THF-3-yl)pyridin-2-yl)amino)isoin-dolin-1-one]: the pIC50 was over 7.00.

Take `CN1CCN(c2ccc(Nc3cnc(-c4c(F)cnc5c4ccn5C)c4c3C(=O)NC4)nc2)CC1` [I-128]: the negative-log IC50 (pIC50) is over 7.00.

On to `CC(C)(O)[C@H]1CN(c2ccc(Nc3ccc(-c4cnc5cc(F)ccn45)c4c3C(=O)NC4)nc2)CCO1` [I-345, (R)-4-(7-fluoroimidazo[1,2-a]pyridin-3-yl)-7-((5-(2-(2-hydroxypropan-2-yl)morpholino)pyridin-2-yl)amino)isoindolin-1-one], for which the pIC50 is over 7.00.

In the case of `C[C@H]1CCn2c(-c3ccc(Nc4ccc(N5CCC(O)CC5)cn4)c4c3CNC4=O)cnc2C1` [I-303, (S)-7-((5-(4-hydroxy-piperidin-1-yl)pyridin-2-yl)amino)-4-(7-methyl-5,6,7.8-tetrahydroimi-dazo[1,2-a]pyridin-3-yl)isoindolin-1-one], the pIC50 is over 7.00.

In the case of `Cn1ccc2c(-c3ccc(Nc4ccc(N5CCC(O)CC5)cn4)c4c3CNC4=O)cnc-2n1` [I-426, 7-((5-(4-hydroxy-piperidin-1-yl)pyridin-2-yl)amino)-4-(2-methyl-2H-pyrrolo[2,3-c]pyridazin-5-yl)isoindolin-1-one], the pIC50 is over 7.00.

In the case of `O=C1NCc2c(-c3ccnc4ccsc34)ccc(Nc3ccc(N4CCNCC4)cn3)c21` [I-107, 7-[(5-piperazin-1-yl-2-pyridyl)amino]-4-thieno[3,2-b]pyridin-7-yl-isoindolin-1-one], the negative-log IC50 (pIC50) was over 7.00.

Regarding `O=C1NCc2c(-c3cnc4ccccn34)ccc(Nc3ccc(N4CC5CCC(C4)N5)cn3)c21` [I-101, 7-[[5-(3,8-diazabicyclo [3,2.1]octan-3-yl)-2-pyridyl]amino]-4-imidazo[1,2-a]pyridin-3-yl-isoindolin-1-one], the negative logarithm of the IC50 (pIC50) was over 7.00.

As a reminder, the pIC50 is the negative decadic logarithm of the IC50, by convention in mol/L.
